The record followed here is patent publication EP4763221A1, “COMPOUND AND ANTIBODY-DRUG CONJUGATE COMPRISING SAME” (priority 2023, dated 2025).

Experiment [1] concerns MDA-MB-453 cells. The experiment in a line: ADCC activity with PBMCs (LDH cytotoxicity detection). The format is cell-based. As to conditions: 5, 15 and 45 µg/mL, PBMC effector-to-target ratio 30:1, 4 h. The method, then:
MDA-MB-453 cells (purchased from Cobioer Biosciences Co., Ltd., Cat. No. CBP60386) and PBMCs (provided by Zhongshan Blood Center) in the logarithmic growth phase were collected and centrifuged at 170× g for 5 min, and the supernatant was discarded. The cell pellet was resuspended in an assay medium (RPMI-1640 containing 1% FBS), centrifuged and washed twice, and the cells were counted. The cell density was adjusted with the assay medium, and the target cell suspension was seeded into a 96-well plate (containing about 3 × 10^4 target cells/well) at 50 µL/well. Then, serially diluted drugs (5 µg/mL, 15 µg/mL, and 45 µg/mL based on the working concentration of the antibody, respectively) were added, and the plate was pre-incubated at room temperature for 1 h. After the pre-incubation was completed, the PBMC suspension was added to the sample wells at 100 µL/well (each well contained about 9 × 10^5 PBMCs with an effector-to-target ratio of 30:1), mixed uniformly, and incubated in an incubator at 37 °C with 5% CO2 for 4 h. After the incubation was completed, the 96-well plate was taken out and centrifuged at 250× g for 5 min. 100 µL of culture supernatant was carefully pipetted and transferred to another 96-well plate. […] OD values at 490 nm and 650 nm were measured. […] The ADCC activity (expressed as ADCC%) was calculated based on the measured OD value of each group. […]

The test system of experiment [2] is NCI-H1781 cells. The experiment in a line: Specific cell killing activity (CellTiter-Glo). The format is cell-based. As to conditions: medium with 10% human ab serum, 6 days. The method, then: NCI-H1781 cells (Cobioer Biosciences Co., Ltd., Cat. No. CBP60116) were collected, and centrifuged at 1000× g for 5 min, and then the supernatant was removed. The cells were resuspended and counted, and the viability was determined. The cells were diluted, and NCI-H1781 (2500 cells/100 µL) was added to each well of a black-bottom 96-well plate. The plate was incubated in an incubator at 37 °C with 5% CO2 overnight. The experimental drug was diluted with a medium (10% human ab serum), and 100 µL of the experimental drug was added to each well according to the experimental design. A blank control was designed, with three replicate wells set for each group. The plate was incubated in an incubator at 37 °C with 5% CO2 for 6 days. After incubation, the 96-well plate was centrifuged at 350× g for 5 min, and then 135 µL of the supernatant was discarded. 60 µL of CellTiter-Glo (Promega, Cat. No. G8461) was added to each well. The plate was incubated at room temperature for 15 min. Then the […] value was detected by a multi-label microplate tester.

The subject of experiment [3] is HCC827 human lung cancer cell xenograft tumor. The experiment in a line: In vivo efficacy in xenograft tumor model. Details: species or system CB-17 SCID mice. As to conditions: 3 mg/kg and 1.5 mg/kg, IV, weekly×3, compared to isotype control antibody. The source says: To determine the anti-tumor activity of the anti-HER3 antibody-drug conjugates in vivo, HCC827 human lung cancer cells (purchased from GuangZhou Jennio Biotech Co., Ltd.) were first inoculated subcutaneously into 5- to 8-week-old female CB-17 SCID mice (purchased from Guangdong Model Organisms Center, Inc.) on the upper posterior region of the right hind thigh. The day of grouping was defined as D0. The route of administration was intravenous injection (iv), once a week for a total of 3 doses. After the administration, the length and width of the tumors in each group were measured, and the tumor volume was calculated. Table 7: Dosing regimen of anti-HER3 antibody-drug conjugates for treatment of CB-17 SCID mouse model of HCC827 human lung cancer cell xenograft tumor

Experiment [4] deals with MDA-MB-453 cells. The experiment in a line: FACS assay for internalization activity in MDA-MB-453 cells. The experiment is classed as cell-based. As to conditions: 100 nM, 37 °C for 1 h, 3 h and 5 h, compared to isotype control IgG-Dxd. The method, then: MDA-MB-453 cells (purchased from Cobioer Biosciences Co., Ltd., Cat. No. CBP60386) were collected, counted, and determined for cell viability. The cell suspension was added to a 96-well low-adsorption plate at 1 × 10^5 cells/sample and centrifuged at 750× g for 5 min. The supernatant was discarded. 100 µL of the experimental drug (at a working concentration of 100 nM) was added, with an isotype control (IgG-Dxd, at a working concentration of 100 nM) designed in parallel. The mixture was mixed uniformly and incubated in an incubator at 37 °C for 1 h, 3 h, and 5 h. After the incubation was completed, 1% PBSA (PBS + 1% BSA) was added, and the mixture was centrifuged at 750× g for 5 min. The supernatant was discarded, and the cells were washed twice with 1% PBSA. 100 µL of patritumab (at a working concentration of 100 nM) was added, and the mixture was incubated on ice for 30 min. 1% PBSA (PBS + 1% BSA) was added, and the mixture was centrifuged at 750× g for 5 min. The supernatant was discarded, and the cells were further washed twice with 1% PBSA. 100 µL of 300-fold diluted fluorescent antibody Mouse Anti-Human IgG Fc-Alexa Fluor 647 (Southern Biotech, Cat. No. 9040-31) was added, and the cell pellet was resuspended and incubated on ice for 30 min in the dark. 1% PBSA (PBS + 1% BSA) was added, and the mixture was centrifuged at 1000× g for 5 min. […]

For “KA0013: anti-HER3 antibody-drug conjugate: patritumab conjugated via thioether bonds to Mc-AAA-Dxd (KA0012)”, the ADCC activity entry in experiment [1] is “had ADCC activity”. Besides, the “specific cell killing activity” value in experiment [2] is listed as “specifically kill NCI-H1781 cells”. In experiment [3], the “growth of mouse tumors (tumor volume)” value was “effectively inhibit the growth of mouse tumors”. For the same substance, in experiment [4], the “endocytic (internalization) activity” value is on record as “could be endocytosed in MDA-MB-453”.
